# Laboratory results reported in patent US20130184302A1, “METHODS FOR TREATING IRRITABLE BOWEL SYNDROME (IBS) AND INFECTIONS” (priority 2011, published 2013).
# Tests used:
# Type in all cases: in vivo, human
# [1] = test system: C. difficile infection (CDI); assay: CDI trial: continuing illnesses
# [2] = test system: patients with diarrhea-predominant IBS; assay: Tolerability, adverse events, rifaximin 550 mg BID study; conditions: rifaximin 550 mg BID 14 days
# [3] = test system: C. difficile infection (CDI); assay: CDI trial: subgroup analysis of diarrhea at TOC; conditions: for Diarrhea, number of subjects / Diarrhea, percent of subjects / No Diarrhea, number of subjects / No Diarrhea, percent of subjects: at TOC; for Diarrhea at TOC: Treatment Difference: Rifaximin vs Vancomycin
# From the text: Tables 42 and 43 set forth a subgroup analysis of diarrhea at TOC.
# [4] = test system: patients with non-constipation IBS (non-C IBS); assay: Adequate relief of IBS symptoms and IBS symptom of bloating (weekly SGA, daily measures), rifaximin 550 mg TID 14 days
# From the text: A measure of efficacy was based on subjects' answers to the Weekly Subject Global Assessment (SGA) questions over the 4 week study duration in relation to their IBS symptoms. […] The SGA question was asked weekly as follows: “In the past 7 days, have you had adequate relief of your IBS symptom of bloating?” (Yes/No).
# The primary efficacy endpoint of the study was the proportion of subjects who achieved adequate relief of IBS symptoms for at least 2 weeks during the first 4 weeks of the 10-week follow-up phase.
# Two measures of efficacy were assessed.
# Subjects were questioned on the relief of overall IBS symptoms and bloating. […] The analyses defined success as a “yes” response to questions regarding adequate relief.
# All subpopulations in the study responded to therapy. Baseline severity was determined during screening for Abdominal Pain/Discomfort and Bloating, and the number, type (normal, hard, loose) and urgency of bowel movements. Duration of effect was assessed in a ten week follow-up period.
# [5] = Rifaximin N = 117, Vancomycin N = 115
# [6] = subgroup Age <65, Rifaximin N = 69, Vancomycin N = 62
# [7] = subgroup Age >=65, Rifaximin N = 39, Vancomycin N = 49
# [8] = subgroup Female, Rifaximin N = 68, Vancomycin N = 64
# [9] = subgroup Male, Rifaximin N = 40, Vancomycin N = 47
# [10] = Age Group: <65 (N = 281), 550 mg TID
# [11] = Gender: Female (N = 226), 550 mg TID
# [12] = Gender: Male (N = 85), 550 mg TID
# [13] = IBS Subtype: Alternating-predominant, 550 mg TID
# [14] = IBS Subtype: Diarrhoea-predominant, 550 mg TID
# [15] = Population: ITT (N = 315), 550 mg TID
# [16] = Population: PP (N = 311), 550 mg TID
# [17] = Population: PP (N = 311), weekly SGA, 550 mg TID
# [18] = Race: Non-White (N = 31), 550 mg TID
# [19] = Race: White (N = 280), 550 mg TID
# [20] = oral rifaximin 550 mg TID 14 days vs subjects not taking rifaximin
# [21] = weekly SGA, at least 2 of Weeks 3 through 6, 550 mg TID (N = 315)
# [22] = weekly SGA, 550 mg TID (N = 315)
structure (smiles),measurement,setting,value
"CO[C@H]1/C=C/O[C@@]2(C)Oc3c(C)c(O)c4c(O)c(c5c(nc6cc(C)ccn65)c4c3C2=O)NC(=O)/C(C)=C\C=C\[C@H](C)[C@H](O)[C@@H](C)[C@@H](O)[C@@H](C)[C@H](OC(C)=O)[C@@H]1C [Rifaximin, (2S,16Z,18E,20S,21S,22R, 23R,24R,25S,26S,27S,28E)-5,6,21,23,25 Pentahydroxy-27-methoxy-2,4,11,16,20,22,24,26-octamethyl-2,7-(epoxypentadeca-(1,11,13)trienimino) benzofuro (4,5-e) pyrido(1,2,-a) benzimidazole-1,15(2H)-dione,25-acetate]","Continuing Illness: No, number of subjects",[1]; [5],90
same,"Continuing Illness: No, percent of subjects",[1]; [5],(77%)
same,"Continuing Illness: Yes, number of subjects",[1]; [5],27
same,"Continuing Illness: Yes, percent of subjects",[1]; [5],(23%)
same,Continuing Illness: Treatment Difference,[1]; Rifaximin vs Vancomycin,−9.2%
same,"Tolerability, incidence of adverse events compared with placebo",[2],well tolerated
same,"Diarrhea, number of subjects",[3]; [6],16
same,"Diarrhea, percent of subjects",[3]; [6],(23%)
same,"No Diarrhea, number of subjects",[3]; [6],53
same,"No Diarrhea, percent of subjects",[3]; [6],(77%)
same,"Diarrhea, number of subjects",[3]; [7],6
same,"Diarrhea, percent of subjects",[3]; [7],(15%)
same,"No Diarrhea, number of subjects",[3]; [7],33
same,"No Diarrhea, percent of subjects",[3]; [7],(85%)
same,"Diarrhea, number of subjects",[3]; [8],14
same,"Diarrhea, percent of subjects",[3]; [8],(21%)
same,"No Diarrhea, number of subjects",[3]; [8],54
same,"No Diarrhea, percent of subjects",[3]; [8],(79%)
same,"Diarrhea, number of subjects",[3]; [9],8
same,"Diarrhea, percent of subjects",[3]; [9],(20%)
same,"No Diarrhea, number of subjects",[3]; [9],32
same,"No Diarrhea, percent of subjects",[3]; [9],(80%)
same,Diarrhea at TOC: Treatment Difference,[3]; subgroup Age <65,−3.8%
same,Diarrhea at TOC: Treatment Difference,[3]; subgroup Age >=65,3.0%
same,Diarrhea at TOC: Treatment Difference,[3]; subgroup Female,−3.4%
same,Diarrhea at TOC: Treatment Difference,[3]; subgroup Male,1.3%
same,Adequate Relief of IBS symptom of Bloating: Failure,[4]; [10],171 (60.9%)
same,Adequate Relief of IBS symptom of Bloating: Success,[4]; [10],110 (39.1%)
same,Adequate Relief of IBS symptoms: Failure,[4]; [10],171 (60.9%)
same,Adequate Relief of IBS symptoms: Success,[4]; [10],110 (39.1%)
same,Adequate Relief of IBS symptom of Bloating: Failure,"[4]; Age Group: > = 65, 550 mg TID",16 (53.3%)
same,Adequate Relief of IBS symptom of Bloating: Success,"[4]; Age Group: > = 65, 550 mg TID",14 (46.7%)
same,Adequate Relief of IBS symptoms: Failure,"[4]; Age Group: > = 65, 550 mg TID",16 (53.3%)
same,Adequate Relief of IBS symptoms: Success,"[4]; Age Group: > = 65, 550 mg TID",14 (46.7%)
same,Adequate Relief of IBS symptom of Bloating: Failure,[4]; [11],128 (56.6%)
same,Adequate Relief of IBS symptom of Bloating: Success,[4]; [11],98 (43.4%)
same,Adequate Relief of IBS symptoms: Failure,[4]; [11],130 (57.5%)
same,Adequate Relief of IBS symptoms: Success,[4]; [11],96 (42.5%)
same,Adequate Relief of IBS symptom of Bloating: Failure,[4]; [12],59 (69.4%)
same,Adequate Relief of IBS symptom of Bloating: Success,[4]; [12],26 (30.6%)
same,Adequate Relief of IBS symptoms: Failure,[4]; [12],57 (67.1%)
same,Adequate Relief of IBS symptoms: Success,[4]; [12],28 (32.9%)
same,Adequate Relief of IBS symptom of Bloating: Failure,[4]; [13],19 (55.9%)
same,Adequate Relief of IBS symptom of Bloating: Success,[4]; [13],15 (44.1%)
same,Adequate Relief of IBS symptoms: Failure,[4]; [13],21 (61.8%)
same,Adequate Relief of IBS symptoms: Success,[4]; [13],13 (38.2%)
same,Adequate Relief of IBS symptom of Bloating: Failure,[4]; [14],168 (60.6%)
same,Adequate Relief of IBS symptom of Bloating: Success,[4]; [14],109 (39.4%)
same,Adequate Relief of IBS symptoms: Failure,[4]; [14],166 (59.9%)
same,Adequate Relief of IBS symptoms: Success,[4]; [14],111 (40.1%)
same,Adequate Relief of IBS symptom of Bloating Based on Daily Measures: Failure,[4]; [15],182 (57.8%)
same,Adequate Relief of IBS symptom of Bloating Based on Daily Measures: Success,[4]; [15],133 (42.2%)
same,Adequate Relief of IBS symptoms Based on Daily Measures: Failure,[4]; [15],200 (63.5%)
same,Adequate Relief of IBS symptoms Based on Daily Measures: Success,[4]; [15],115 (36.5%)
same,Adequate Relief of IBS symptom of Bloating Based on Daily Measures: Failure,[4]; [16],180 (57.9%)
same,Adequate Relief of IBS symptom of Bloating Based on Daily Measures: Success,[4]; [16],131 (42.1%)
same,Adequate Relief of IBS symptoms Based on Daily Measures: Failure,[4]; [16],196 (63.0%)
same,Adequate Relief of IBS symptoms Based on Daily Measures: Success,[4]; [16],115 (37.0%)
same,Adequate Relief of IBS symptom of Bloating: Failure,[4]; [17],187 (60.1%)
same,Adequate Relief of IBS symptom of Bloating: Success,[4]; [17],124 (39.9%)
same,Adequate Relief of IBS symptoms: Failure,[4]; [17],187 (60.1%)
same,Adequate Relief of IBS symptoms: Success,[4]; [17],124 (39.9%)
same,Adequate Relief of IBS symptom of Bloating: Failure,[4]; [18],17 (54.8%)
same,Adequate Relief of IBS symptom of Bloating: Success,[4]; [18],14 (45.2%)
same,Adequate Relief of IBS symptoms: Failure,[4]; [18],16 (51.6%)
same,Adequate Relief of IBS symptoms: Success,[4]; [18],15 (48.4%)
same,Adequate Relief of IBS symptom of Bloating: Failure,[4]; [19],170 (60.7%)
same,Adequate Relief of IBS symptom of Bloating: Success,[4]; [19],110 (39.3%)
same,Adequate Relief of IBS symptoms: Failure,[4]; [19],171 (61.1%)
same,Adequate Relief of IBS symptoms: Success,[4]; [19],109 (38.9%)
same,Answers to weekly SGA question on adequate relief of IBS symptom of bloating,[4]; [20],responded “Yes” more often
same,Answers to weekly SGA question on adequate relief of IBS symptoms,[4]; [20],responded “Yes” more often
same,Adequate Relief of IBS symptom of Bloating: Success,[4]; [21],125 (39.7%)
same,Adequate Relief of IBS symptoms: Success,[4]; [21],125 (39.7%)
same,Adequate Relief of IBS symptom of Bloating: Failure,[4]; [22],190 (60.3%)
same,Adequate Relief of IBS symptoms: Failure,[4]; [22],190 (60.3%)
